Read-outs that look alike come from different tables or passages of the source.
How the values were obtained:
[1] = target: 5-HT1D receptor (Homo sapiens, UniProt P28221); assay: Membrane based GTPγS assay, agonist activity at 5-HT1D; type: biochemical; conditions: 5-CT reference agonist, FIG. 6
[2] = target: T1, 5-HT2c receptor (Homo sapiens, UniProt P28335); assay: FLIPR agonist assay at the 5-HT2c receptor (analogous to Example 2); type: cell-based; conditions: for agonist activity at the 5-HT2c receptor: FLIPR
T1 sequence (P28335 33-458): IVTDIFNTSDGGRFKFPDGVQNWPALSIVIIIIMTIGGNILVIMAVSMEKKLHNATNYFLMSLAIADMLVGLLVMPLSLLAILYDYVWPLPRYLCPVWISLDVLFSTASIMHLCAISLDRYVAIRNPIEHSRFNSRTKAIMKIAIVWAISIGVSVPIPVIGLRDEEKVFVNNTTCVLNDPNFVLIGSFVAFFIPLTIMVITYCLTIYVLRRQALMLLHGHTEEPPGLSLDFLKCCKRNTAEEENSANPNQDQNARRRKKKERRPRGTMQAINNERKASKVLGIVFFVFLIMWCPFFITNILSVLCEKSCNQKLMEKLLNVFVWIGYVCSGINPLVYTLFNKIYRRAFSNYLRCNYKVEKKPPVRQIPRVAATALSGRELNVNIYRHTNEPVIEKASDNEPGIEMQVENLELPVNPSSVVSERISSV

[3] = target: 5-HT1B receptor (Homo sapiens, UniProt P28222); assay: Membrane based GTPγS assay, agonist activity at 5-HT1B; type: biochemical; conditions: 5-CT reference agonist, FIG. 5
Method: A membrane based GTPγS assay was conducted to monitor agonist activity of test compounds at the 5-HT1B receptor, summarized in FIG. 5. Test compounds were serially diluted to provide a wide concentration range sufficient to calculate EC50. The results are expressed as a percent of activation. 5-CT was used as a reference agonist.

[4] = target: T2, 5-HT2B receptor (Homo sapiens, UniProt P41595); assay: FLIPR assay, antagonist selectivity at the 5-HT2B receptor; type: cell-based; conditions: FIG. 2
T2 construct: Millipore, Inc. (GPCR Profiler Service Laboratory, St. Charles, Mo.)
Method: (§1) A FLIPR assay was conducted to monitor antagonist selectivity for 1-methyl-dihydroergotamine against the 5-HT2B receptor. The assay was completed with an eight point, 4 fold serial dilution series starting with 10 μM concentration to obtain full dose response curve. Percentage inhibition values were determined for 1-methyl-dihydroergotamine on the 5-HT2B receptor. Antagonist percentage inhibition determinations were obtained by assaying 1-methyl-dihydroergotamine and referencing the Emax control for the 5-HT2B receptor. The assay above was performed by GPCR Profiler™ Service Laboratory, St. Charles, Mo., Millipore, Inc.

[5] = target: T2, 5-HT2B receptor; assay: FLIPR assay, agonist selectivity at the 5-HT2B receptor; type: cell-based
Method: as §1, with “agonist” for “antagonist”, “activation” for “inhibition”, “Agonist selectivity was determined upon initial addition of for 1-methyl-dihydroergotamine followed by a 5 minute incubation at 25° C. Following compound incubation, reference agonists were added at EC80. Agonist” for “Antagonist”, “assay” for “assay above”

[6] = target: T1, 5-HT2c receptor; assay: FLIPR antagonist assay at the 5-HT2c receptor (analogous to Example 3); type: cell-based
[7] = target: T3, 5-HT1A receptor (Homo sapiens, UniProt P08908); assay: Cell based assay (cAMP modulation with HTRF detection), agonist activity at 5-HT1A; conditions: percent of control response to 100 nM 8-OH-DPAT, FIG. 3
T3 sequence (P08908 1-422): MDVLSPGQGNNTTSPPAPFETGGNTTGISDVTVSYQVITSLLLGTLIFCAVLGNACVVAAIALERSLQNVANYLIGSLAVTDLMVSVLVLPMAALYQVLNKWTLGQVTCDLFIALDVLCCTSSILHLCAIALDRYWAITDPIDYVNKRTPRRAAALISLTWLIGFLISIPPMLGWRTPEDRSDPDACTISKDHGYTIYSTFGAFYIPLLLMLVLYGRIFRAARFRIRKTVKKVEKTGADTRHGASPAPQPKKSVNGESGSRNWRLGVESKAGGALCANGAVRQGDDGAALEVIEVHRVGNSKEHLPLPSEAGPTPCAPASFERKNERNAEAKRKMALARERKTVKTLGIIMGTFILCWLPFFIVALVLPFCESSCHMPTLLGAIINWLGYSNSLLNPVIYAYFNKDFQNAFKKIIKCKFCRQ
Method: (§2) A cell based assay (cAMP modulation with HTRF detection) was conducted to monitor agonist activity of test compounds at the 5-HT1A receptor, summarized in FIG. 3. Test compounds were serially diluted to provide a wide concentration range sufficient to calculate EC50. The cAMP concentration was determined and results are expressed as a percent of the control response to 100 nM 8-OH-DPAT (control agonist).

[8] = target: 5-HT7 receptor (Homo sapiens, UniProt P34969); assay: cAMP HTRF assay, antagonist activity at 5-HT7 (analogous to Example 6); type: cell-based; conditions: percent of control response to 300 nM serotonin, FIG. 4
Method: as §2
The assay was performed analogously to the assay described in Example 6. Antagonist activity of test compounds at the 5-HT7 receptor, using serotonin as a control reference agonist, was measured. Test compounds were serially diluted to provide a wide concentration range sufficient to calculate IC50. The results are expressed as a percent of the control response to 300 nM serotonin.

[9] = FLIPR, FIG. 1, read-out: EC50, agonism of the 5-HT2B receptor

T2 sequence (P41595 whole entry): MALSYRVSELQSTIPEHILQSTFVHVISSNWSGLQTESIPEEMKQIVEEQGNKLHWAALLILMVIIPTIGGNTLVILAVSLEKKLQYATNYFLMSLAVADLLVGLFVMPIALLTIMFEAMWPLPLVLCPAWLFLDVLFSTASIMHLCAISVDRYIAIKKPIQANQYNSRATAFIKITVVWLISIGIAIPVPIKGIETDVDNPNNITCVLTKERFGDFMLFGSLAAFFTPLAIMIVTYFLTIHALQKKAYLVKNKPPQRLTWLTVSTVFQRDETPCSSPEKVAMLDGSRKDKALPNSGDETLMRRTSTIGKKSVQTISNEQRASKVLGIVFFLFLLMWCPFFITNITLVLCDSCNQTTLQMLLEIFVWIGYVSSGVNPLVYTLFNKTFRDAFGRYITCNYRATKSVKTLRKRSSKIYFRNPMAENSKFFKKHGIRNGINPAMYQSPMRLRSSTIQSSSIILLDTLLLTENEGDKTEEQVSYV
5-HT1D receptor, sequence (P28221 whole entry): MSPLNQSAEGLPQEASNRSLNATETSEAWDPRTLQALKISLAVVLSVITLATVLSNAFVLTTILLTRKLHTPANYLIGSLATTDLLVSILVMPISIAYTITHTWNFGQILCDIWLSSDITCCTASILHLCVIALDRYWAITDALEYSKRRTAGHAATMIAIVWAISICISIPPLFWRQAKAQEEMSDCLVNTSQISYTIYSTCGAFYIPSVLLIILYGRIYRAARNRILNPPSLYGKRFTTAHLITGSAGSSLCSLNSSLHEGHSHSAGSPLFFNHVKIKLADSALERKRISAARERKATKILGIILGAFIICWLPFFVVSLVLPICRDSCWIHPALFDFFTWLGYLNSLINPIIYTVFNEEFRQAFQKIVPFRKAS
5-HT7 receptor, sequence (P34969 whole entry): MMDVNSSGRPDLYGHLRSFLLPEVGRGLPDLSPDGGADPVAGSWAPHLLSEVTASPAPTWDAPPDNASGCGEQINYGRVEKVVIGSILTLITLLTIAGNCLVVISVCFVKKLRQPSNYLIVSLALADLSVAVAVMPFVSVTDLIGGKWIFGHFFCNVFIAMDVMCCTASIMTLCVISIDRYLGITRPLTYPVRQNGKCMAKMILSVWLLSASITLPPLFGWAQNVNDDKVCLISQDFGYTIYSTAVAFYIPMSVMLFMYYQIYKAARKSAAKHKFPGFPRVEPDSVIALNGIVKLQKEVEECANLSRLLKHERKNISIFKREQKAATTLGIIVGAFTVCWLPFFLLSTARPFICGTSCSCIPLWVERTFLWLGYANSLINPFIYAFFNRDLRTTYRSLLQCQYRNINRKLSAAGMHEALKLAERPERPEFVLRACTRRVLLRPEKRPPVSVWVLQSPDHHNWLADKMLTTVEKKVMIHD
5-HT1B receptor, sequence (P28222 whole entry): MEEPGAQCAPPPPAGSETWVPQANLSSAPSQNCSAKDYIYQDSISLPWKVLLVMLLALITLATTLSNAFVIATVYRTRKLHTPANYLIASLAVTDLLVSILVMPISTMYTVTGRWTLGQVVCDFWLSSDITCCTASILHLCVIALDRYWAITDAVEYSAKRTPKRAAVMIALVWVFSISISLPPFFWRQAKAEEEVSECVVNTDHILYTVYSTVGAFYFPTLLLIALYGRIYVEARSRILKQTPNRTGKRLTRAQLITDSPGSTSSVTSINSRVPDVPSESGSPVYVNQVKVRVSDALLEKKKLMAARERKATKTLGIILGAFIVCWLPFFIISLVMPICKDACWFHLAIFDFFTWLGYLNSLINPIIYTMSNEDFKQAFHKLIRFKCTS

CN1CC(C(=O)N[C@]2(C)O[C@@]3(O)C4CCCN4C(=O)[C@H](Cc4ccccc4)N3C2=O)CC2c3cccc4c3c(cn4C)CC21 (stereo partly shown) [MAP0057, 1-Methyl-Dihydroergotamine]
EC50 [1]: 0.45 nM
agonist activity at the 5-HT2c receptor [2]: no agonist activity
EC50 [3]: 1.02 nM
IC50 [4]: 16 nM
agonist activity at the 5-HT2B receptor ([5]; FLIPR, dilution series starting with 10 μM, FIG. 1): no agonist activity
IC50 [6]: 460 nM
melting point: 216 to 218 °C
EC50 [7]: 16 nM
IC50 [8]: 69 nM

CC(N)Cc1c[nH]c2ccc(O)cc12 (stereo not drawn) [alpha-Me-5HT]
EC50 [5, 9]: 0.2 nM

CN1C[C@H](C(=O)N[C@]2(C)O[C@@]3(O)[C@@H]4CCCN4C(=O)[C@H](Cc4ccccc4)N3C2=O)C[C@@H]2c3cccc4[nH]cc(c34)C[C@H]21 [dihydroergotamine]
agonist activity at the 5-HT2c receptor [2]: no agonist activity
EC50 [5]: 260 nM
IC50 [6]: 280 nM

CN1C[C@H](C(=O)N[C@]2(C)O[C@@]3(O)[C@@H]4CCCN4C(=O)[C@H](Cc4ccccc4)N3C2=O)C=C2c3cccc4[nH]cc(c34)C[C@H]21 [ergotamine]
EC50 [2]: 5000 nM
EC50 [5]: 160 nM

CCCN1C[C@H](CSC)C[C@@H]2c3cccc4[nH]cc(c34)C[C@H]21 [pergolide]
agonist activity at the 5-HT2c receptor [2]: no agonist activity
EC50 [5, 9]: 10 nM

CNS(=O)(=O)Cc1ccc2[nH]cc(CCN(C)C)c2c1 [sumatriptan]
agonist activity at the 5-HT2c receptor [2]: no agonist activity
antagonist activity at the 5-HT2c receptor ([6]; FLIPR): no antagonist activity
